Entries after “also recorded” stand apart in the source; their conditions may differ.
How the values were obtained:
[1] = test system: primary mammalian motor neurons; experiment: neuroprotective effect on primary mammalian motor neurons in culture under stress; format: cell-based; settings: 0.5 and 5 μM applied 1 hr before stressors (H2O2 and staurosporin), 24 hours, MAP-2 positive cells counted
Experimental: Neuroprotection is measured as a % of cells counted in each experimental condition to the number of control, untreated cells run at the same time on the same plate. NPA was applied 1 hr before stressors (H2O2 and staurosporin), at 2 concentrations: 0.5 and 5 μM. Stressors were applied for 24 hours, then plates were fixed and stained for MAP-2 and then positive cells counted.

[2] = test system: motor axons in HB9:GFP embryos; experiment: primary screen paradigm: motor axons in HB9:GFP transgenic embryos; format: in vivo, zebrafish; settings: 24 hpf HB9:GFP embryos, compound applied at 6 hpf
Experimental: (§1) We use two transgenic lines, in which expression of green fluorescent protein (GFP) is controlled by the motor neuron specific promoters HB9 or islet-1 in the spinal cord. In the HB9:GFP line (Flanagan-Steet et al., 2005), primary motor neurons and their ventral axons are labelled at 24 hours post-fertilisation (hpf). Aberrations in the highly stereotypic pattern of primary motor axons are easily detectable in a stereo-microscope (FIG. 8). […] Thus, acceleration or delay of motor neuron differentiation can readily be assessed under a stereo-microscope.
(§2) Different small molecule libraries may be used for screening. […] Primary screen: Compounds are applied to HB9:GFP embryos in 24 well plates at a concentration of 10-25 μM in accordance with other studies (Zon and Peterson, 2005) at 6 hpf (mid-gastrula) and trajectories of motor axons analysed at 24 hpf. […] Missing, stunted, excessively branched or supernumerary motor axons (FIG. 8), which are easily detectable in a fluorescence-equipped stereo-microscope, are classified as hits. Apparently toxic substances will be re-evaluated at lower concentrations. […] The read-out of this screen is whether the rostro-caudal band of late born secondary motor neurons in the ventral spinal cord is complete. […] To do this, 20 embryos per treatment will be dechorionated, anesthetised (tricaine 1:10000) and analysed under a stereomicroscope. […]

[3] = test system: HB9:GFP+ motor neurons in the lesioned adult spinal cord; experiment: adult validation paradigm: motor neuron regeneration after spinal cord lesion; format: in vivo, zebrafish; settings: 2 weeks post-lesion; for number of newly generated motor neurons in HB9:GFP transgenic animals: within 1.5 mm surrounding the lesion site
Experimental: As described previously (Becker et al., 1997), fish were anesthetized by immersion in 0.033% aminobenzoic acid ethylmethylester (MS222; Sigma, St. Louis, Mo.) in PBS for 5 min. A longitudinal incision was made at the side of the fish to expose the vertebral column. The spinal cord was completely transected under visual control 4 mm caudal to the brainstem-spinal cord junction.
Stereological counts were performed in confocal image stacks of three randomly selected vibratome sections from the region up to 750 μm rostral to the lesion site and three sections from the region up to 750 μm caudal to the lesion site. Cell numbers were then calculated for the entire 1.5 mm surrounding the lesion site.
Different small molecule libraries may be used for screening. It is possible to screen the Spectrum Collection of FDA approved drugs and natural products and other bioactive components (2000 compounds), the Diversity Set of the US National Cancer Institute (1990 compounds), the Tocriscreen library (1120 compounds) and the Prestwick Chemical Library (1120 compounds). Due to some overlap between libraries, we will test approximately 5600 individual compounds. All of these libraries are commercially available. Primary screen: Compounds are applied to HB9:GFP embryos in 24 well plates at a concentration of 10-25 μM in accordance with other studies (Zon and Peterson, 2005) at 6 hpf (mid-gastrula) and trajectories of motor axons analysed at 24 hpf. Analysing 2-3 embryos per compound is sufficient, because the pattern of motor axon outgrowth is highly stereotypic, making this a robust and quick screening tool. No anaesthesia or other manipulations are necessary to observe primary motor axons. Missing, stunted, excessively branched or supernumerary motor axons (FIG. 8), which are easily detectable in a fluorescence-equipped stereo-microscope, are classified as hits. Apparently toxic substances will be re-evaluated at lower concentrations. Specificity of the effect will be established in dose-response experiments for each hit. Secondary screen: To exclude non-specific effects on motor axons due to gross alterations of the embryos occurring during early drug application, and to more directly analyse incipient differentiation of motor neurons, we use the islet-1:GFP fish. Hit compounds from the primary screen are applied at 24 hpf, when early embryogenesis is complete, but before islet-1:GFP+ motor neurons have been born. The read-out of this screen is whether the rostro-caudal band of late born secondary motor neurons in the ventral spinal cord is complete. […] To do this, 20 embryos per treatment will be dechorionated, anesthetised (tricaine 1:10000) and analysed under a stereomicroscope. […]

[4] = test system: islet-1:GFP+ motor neurons in the ventral spinal cord; experiment: secondary screen paradigm: motor neuron differentiation in islet-1:GFP transgenic embryos; format: in vivo, zebrafish
Experimental: as §1, §2

| SMILES | neuroprotection: number of neurons surviving stress conditions (% of untreated control cells) [1] | absence of motor axons [2] | reduction in the number of newly generated motor neurons ([3]; compared to tomatidine-injected animals) | number of newly generated motor neurons in HB9:GFP transgenic animals ([3]; intraperitoneal injection) | embryos with a complete band of differentiated motor neurons ([4]; 72 hpf, controls 82%, p<0.00001) | effect on motor neuron differentiation (in words) ([4]; islet-1:GFP embryos, compound applied at 24 hpf, read at 48 hpf and 72 hpf) | number of large motor neurons ([3]; intraperitoneal injection, p=0.0008) |
| --- | --- | --- | --- | --- | --- | --- | --- |
| CCCN1CCc2cccc3c2[C@H]1Cc1ccc(O)c(O)c1-3.Cl [NPA, R(−)-Propylnorapomorphine] | significantly increases the number of mammalian neurons surviving stress conditions |  |  |  |  |  |  |
| CC1=C2C[C@H]3[C@@H](CC=C4C[C@@H](O)CC[C@@]43C)[C@@H]2CC[C@]12O[C@@H]1C[C@H](C)CN[C@H]1[C@H]2C [cyclopamine] |  | complete | 50% | 377±45.7 cells | 11% | blocks their differentiation; also recorded: retarded motor neuron differentiation |  |
| C[C@H]1CC[C@]2(NC1)O[C@H]1C[C@H]3[C@@H]4CC[C@H]5C[C@@H](O)CC[C@]5(C)[C@H]4CC[C@]3(C)[C@H]1[C@@H]2C [tomatidine] |  |  |  | 747±42.2 cells |  |  | 20±4.2 |

Source: patent US20110190307A1, “Assay” (priority 2008, published 2011)
